Measured values from paper PMC5908784, “Extracellular loops 2 and 3 of the calcitonin receptor selectively modify agonist binding and efficacy” (Biochemical Pharmacology, 2018).
Substitutions are numbered along the chain they refer to. Where no end group is shown, it is not given here.

Assays:
Assay in all cases: Homologous whole cell competition binding
Details in all cases: homologous competition of 125I-sCT(8-32), whole cells, mean ± S.E.M., SEM
hCTR D373A = target: T1, hCTR D373A (Homo sapiens, UniProt P30988, D373A)
T1 construct: c-Myc (N); expressed in transfected cells
T1 sequence (P30988 25-474 D373A): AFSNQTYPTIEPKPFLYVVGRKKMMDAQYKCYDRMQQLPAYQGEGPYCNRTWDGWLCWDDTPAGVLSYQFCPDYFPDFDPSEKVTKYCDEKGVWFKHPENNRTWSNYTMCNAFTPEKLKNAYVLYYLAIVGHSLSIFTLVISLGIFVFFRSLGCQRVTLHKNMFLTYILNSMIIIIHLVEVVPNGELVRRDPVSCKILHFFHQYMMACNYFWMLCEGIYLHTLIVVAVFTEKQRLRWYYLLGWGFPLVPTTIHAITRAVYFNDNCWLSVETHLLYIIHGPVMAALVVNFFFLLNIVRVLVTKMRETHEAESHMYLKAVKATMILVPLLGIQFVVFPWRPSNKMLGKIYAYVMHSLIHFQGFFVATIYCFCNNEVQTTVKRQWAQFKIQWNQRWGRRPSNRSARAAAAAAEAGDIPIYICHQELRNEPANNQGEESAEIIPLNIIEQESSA
In short: (§1)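 Cells were seeded, cultured overnight, then exposed overnight at 4 °C to two concentrations of ^125I-sCT(8-32) with increasing unlabelled sCT(8-32). Unbound ligand was washed off before counting. Affinity is given as pKi after radioligand occupancy correction.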

hCTR M367A = target: T2, hCTR M367A (Homo sapiens, UniProt P30988, M367A)
T2 construct: c-Myc (N); expressed in transfected cells
T2 sequence (P30988 25-474 M367A): T1 sequence (P30988 25-474 D373A) with M343A, A349D
In short: as §1

hCTR M376A = target: T3, hCTR M376A (Homo sapiens, UniProt P30988, M376A)
T3 construct: c-Myc (N); expressed in transfected cells
T3 sequence (P30988 25-474 M376A): T1 sequence (P30988 25-474 D373A) with A349D, M352A
In short: as §1

hCTR P363A = target: T4, hCTR P363A (Homo sapiens, UniProt P30988, P363A)
T4 construct: expressed in transfected cells
T4 sequence (P30988 25-474 P363A): T1 sequence (P30988 25-474 D373A) with P339A, A349D
In short: as §1

Substance “VLGKLSQELHKLQTYPRTNTGSGTP-NH2 [sCT(8-32)]” has a Ki (hCTR D373A) of 0.525 nM, a Ki (hCTR M367A) of 0.295 nM and a Ki (hCTR M376A) of 0.132 nM. It also gave a Ki (hCTR P363A) of 0.355 nM.
